Article PMC8960621, “Solution speciation and human serum protein binding of indium(III) complexes of 8-hydroxyquinoline, deferiprone and maltol” (Journal of Biological Inorganic Chemistry, 2022)
Several values for one entry are separate records, joined by “and”; a condition that tells them apart may be missing. Equal values may be shown once.

Experiments:
apoTf = target: T1, apoTf (Homo sapiens, UniProt P02787); assay: Interaction with (apo)Tf: ligand displacement and binding of the intact complex (UV-vis, fluorescence, ultrafiltration); details: pH 7.40
T1 construct: purchased Sigma-Aldrich T2036
Description: Therefore, UV–vis and fluorescence emission spectra of InQ3 were recorded in the presence of increasing amounts of apoTf (Fig. 5a, b). After a short initial phase, the absorbance band of InQ3 is reduced gradually by the addition of the protein, while the development of the new band at lower wavelengths (at ca. 310 nm) refers to the liberation of HQ. Namely, there is a competition for In(III) ion between the ligand and the iron-binding sites of apoTf. Absorbance values depicted at 370 nm and 310 nm (Fig. 5c) saturate roughly to the corresponding values of the free ligand and outline a sigmoidal shape. Fluorescence intensity of the same sample set (Fig. 5b, d) was enhanced and moderately blue shifted (from λmax = 540 nm to 532 nm) until the addition of ca. 0.2 equiv. apoTf. […] Then, by the addition of more apoTf, intensities decreased and λmax shifted further to shorter wavelengths (527 nm). […] Based on this and the results of apoTf quenching (vide supra) protein binding of the non-dissociated complex is presumed. This is further supported by fluorescence lifetime measurements; where new lifetime components τ3 = 4.7 ± 0.2 ns and τ4 = 13.8 ± 0.4 ns appeared for InQ3 in the presence of 0.1 – 0.3 equiv. apoTf (after 1 min waiting time). […] Here, the sigmoid shape of the UV–vis absorbance was seen again (Fig. S5) and the shifted inflection point in comparison to the titration with apoTf underlines the lower In(III) binding capacity of Tf. […]
In the case of InD3, the absorbance bands of the metal complex and apoTf overlap in great extent, however, spectra can be deconvoluted to the spectra of InD3, deferiprone and apoTf (see Fig S6 for details), and molar fractions of the respective species can be calculated (Fig. 6). Ultrafiltration experiments were carried out as well for the InD3 – apoTf system and the non-protein bound LMM fractions were analyzed by UV–vis spectrophotometry (Fig. 6). […] The complex dissociated in line with the addition of apoTf and a practically quantitative displacement of deferiprone seems to take place by the addition of ca. 0.5 equiv. apoTf. […]

HSA = target: T2, HSA (Homo sapiens, UniProt P02768); assay: Fluorescence lifetime (TCSPC) of the complexes in the presence of HSA; format: binding; details: additional lifetime component in the presence of HSA (2–10 μM), 10 μM complex, pH 7.40
T2 construct: purchased Sigma-Aldrich A8763
Description: The fluorescence lifetime of InQ3 was determined in the absence and presence of HSA. […] GaQ3 behaves similarly (Table 2), while lifetimes of InD3 were too short (τ ≤ 0.2 ns) for accurate determination with our instrument. By the addition of HSA to the complex, two additional lifetime components appeared for InQ3: τ3 = 5.7 ± 0.3 ns and τ4 = 13.8 ± 0.6 ns, which correspond to the HSA bound forms. […] The GaQ3 ‒ HSA system could be characterized with similar lifetime parameters (Table 2).
Fluorescence lifetime was measured on the same fluorometer equipped with a DeltaHub time-correlated single photon counting (TCSPC) controller applying NanoLED light sources N-300 (λmax = 300 nm) and N-350 (λmax = 355 nm) (Horiba Jobin Yvon). The background (obtained with blank samples) was subtracted from the decay of the samples. The program DAS6 (version 6.6.; Horiba, Jobin Yvon) was used for the analysis of the experimental fluorescence decays. The fluorescence intensity decay over time is described by a sum of exponentials,1 It=∑i=1nαiexp-t/τi where αi and τi are the normalized amplitude and lifetime of component i respectively. The quality of the fit was judged from a χ^2R value close to 1.0 and a random distribution of weighted residuals.

[1] = Speciation in threefold diluted human blood serum by UV-vis; format: in vitro ADME; details: 10 µM complex
Description: With this knowledge, samples prepared in blood serum were studied by UV–vis spectrometry to count the significance of HMM and LMM serum components in the speciation of the complexes (Figs. 9 and S8). Unfortunately, fluorescence spectra could not be recorded due to the significant light scattering of the samples. […] UV–vis spectra in Fig. 9 resemble the behaviour observed for the complex – HSA – Tf ternary systems (Fig. S7) with some important differences. […] This refers to the altered coordination sphere of the metal complex. […] Keeping in mind the difficulties of interpretation of UV–vis spectroscopic data obtained in complex matrices, some assumptions can be made relying on the results of binary and ternary systems. Significant Tf binding of In(III) in blood serum is likely, while GaQ3 interacts less with this protein. […] Formation of HQ – Mg(II) complex is not feasible even at physiological Mg(II) ion levels (0.7–1.0 mM) based on the available stability constants. Zn(II) ion forms higher stability complexes with HQ as Mg(II) and could compete for HQ with In(III) or Ga(III) if its total blood plasma concentration (10–28 μM) would be freely available. […]
For (apo)Tf containing samples, complex concentrations were 20 μM and 0–2.5 equiv. protein was added. Reference spectra for the complexes, ligands and protein were recorded as well. […]

T2 sequence (P02768 25-609): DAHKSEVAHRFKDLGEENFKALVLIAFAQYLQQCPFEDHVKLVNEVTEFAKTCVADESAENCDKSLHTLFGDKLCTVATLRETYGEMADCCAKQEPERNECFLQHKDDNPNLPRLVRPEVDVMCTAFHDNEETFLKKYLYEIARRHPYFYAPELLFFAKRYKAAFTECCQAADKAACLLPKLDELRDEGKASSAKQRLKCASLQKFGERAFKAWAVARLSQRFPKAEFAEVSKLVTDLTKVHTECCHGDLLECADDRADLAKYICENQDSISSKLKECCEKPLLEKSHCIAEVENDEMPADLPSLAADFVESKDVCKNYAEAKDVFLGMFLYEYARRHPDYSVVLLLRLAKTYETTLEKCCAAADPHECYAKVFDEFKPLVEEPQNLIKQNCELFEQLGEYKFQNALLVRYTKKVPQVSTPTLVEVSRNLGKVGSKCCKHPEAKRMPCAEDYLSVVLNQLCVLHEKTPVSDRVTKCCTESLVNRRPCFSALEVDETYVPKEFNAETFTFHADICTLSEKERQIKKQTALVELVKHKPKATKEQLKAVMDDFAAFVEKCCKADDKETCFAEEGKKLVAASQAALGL
T1 sequence (P02787 20-698): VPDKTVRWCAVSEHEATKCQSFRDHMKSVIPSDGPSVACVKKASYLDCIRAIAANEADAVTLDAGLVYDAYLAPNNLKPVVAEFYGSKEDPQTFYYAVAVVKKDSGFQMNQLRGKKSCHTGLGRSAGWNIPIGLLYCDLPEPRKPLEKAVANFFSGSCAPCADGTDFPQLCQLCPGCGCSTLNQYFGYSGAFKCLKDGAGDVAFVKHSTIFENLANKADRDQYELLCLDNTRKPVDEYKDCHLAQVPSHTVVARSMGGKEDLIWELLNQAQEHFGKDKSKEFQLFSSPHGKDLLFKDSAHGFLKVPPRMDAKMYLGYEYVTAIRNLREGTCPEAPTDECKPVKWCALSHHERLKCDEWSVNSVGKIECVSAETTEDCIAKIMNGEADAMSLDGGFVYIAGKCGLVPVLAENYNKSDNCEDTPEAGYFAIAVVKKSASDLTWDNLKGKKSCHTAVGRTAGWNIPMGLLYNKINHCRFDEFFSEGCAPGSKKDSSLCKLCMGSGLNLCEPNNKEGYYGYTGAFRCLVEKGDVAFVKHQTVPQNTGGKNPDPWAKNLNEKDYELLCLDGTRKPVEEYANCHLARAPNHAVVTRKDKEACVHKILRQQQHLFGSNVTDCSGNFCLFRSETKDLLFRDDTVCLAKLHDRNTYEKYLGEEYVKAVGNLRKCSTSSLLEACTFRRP

For `[Ga+3].[O-]c1cccc2cccnc12.[O-]c1cccc2cccnc12.[O-]c1cccc2cccnc12` [GaQ3, Tris(8-Quinolinolato)gallium(III), reference compound], the “binding via intermolecular interactions to apoTf (and Tf)” value (apoTf; UV–vis and fluorescence) was “no such binding was observed”, the τ3 (HSA) was 5.0 ± 0.3 ns and the τ4 (HSA) was 14.0 ± 0.2 ns. For the same compound, the “time to reach chemical equilibrium in serum” value [1] was at most 10 min.

In the case of `Cc1c([O-])c(=O)ccn1C.Cc1c([O-])c(=O)ccn1C.Cc1c([O-])c(=O)ccn1C.[In+3]` [InD3], the “apoTf needed for practically quantitative displacement of the ligand” value (apoTf; UV–vis deconvolution and ultrafiltration) was “ca. 0.5 equiv”.

In the case of `[In+3].[O-]c1cccc2cccnc12.[O-]c1cccc2cccnc12.[O-]c1cccc2cccnc12` [InQ3, Tris(8-Quinolinolato)indium(III)], the τ3 (HSA) was 5.7 ns and 5.7 ± 0.3 ns, the τ4 (HSA) was 13.8 ns and 13.8 ± 0.6 ns and the “time to reach chemical equilibrium in serum” value [1] was 240 min.
